The record followed here is US5162336A, “Tetrahydro-pyrido-indoles as cholecystokinin and gastrin antagonists” (Rhone-Poulenc Rorer Pharmaceuticals Inc., priority 1990, dated 1992).

The test has as its target T1, CCK-A receptor (Rattus norvegicus, UniProt P30551).
T1 construct: from tissue; host or cells: pancreas membranes of Sprague-Dawley rat
T1 sequence (P30551 1-444): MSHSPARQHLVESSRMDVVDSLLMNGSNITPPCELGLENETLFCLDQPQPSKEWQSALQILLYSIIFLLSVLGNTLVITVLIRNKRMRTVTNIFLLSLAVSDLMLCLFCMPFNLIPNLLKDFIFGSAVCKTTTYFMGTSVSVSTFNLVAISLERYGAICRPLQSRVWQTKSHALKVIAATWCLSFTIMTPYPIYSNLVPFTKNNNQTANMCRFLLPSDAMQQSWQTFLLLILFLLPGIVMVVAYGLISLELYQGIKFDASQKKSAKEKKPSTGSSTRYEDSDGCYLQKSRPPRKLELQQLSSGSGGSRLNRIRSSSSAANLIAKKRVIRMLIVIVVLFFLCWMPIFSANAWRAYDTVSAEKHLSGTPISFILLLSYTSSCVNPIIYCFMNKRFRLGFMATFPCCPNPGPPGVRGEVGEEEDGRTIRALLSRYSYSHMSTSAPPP
As to the kind of experiment: CCK-A receptor binding assay (displacement of 3H-L-364,718 from rat pancreas membranes). Also on record: species or system Sprague-Dawley rat. The note with it: 3H-L-364,718 0.2 nM, 37° C., 30 min, read-out: In vitro Binding Data IC50 CCK. On the procedure:
Washer Buffer (for use with Brandel Cell Harvester):
30 liters of 50 mM Tris, ph 7.7: Dissolve 181.7 g. Tris base in 4 1. deionized water at room temperature. Adjust pH to 7.7 with 6 N HCl and Q.S. to 30 1.
50 mM Tris-Cl, 5 mM MgCl2, 5 mM dithio-thretiol, 0.14 mg/ml bacitracin, and 2 mg/ml bovine serum albumin.
1 liter of 5X stock buffer:
30.28 g. Tris base per 800 ml D.I. water 5.09 g. MgCl2 6 H2 O, pH to 7.7 at room temperature with 6N HCl and Q.S. 1 liter, store at 4° C.
250 ml working buffer kept on ice:
50 ml of 5X stock buffer 0.1928 g. dithiothretiol (5 mM), 35 mg bacitracin (0.14 mg/ml), and 0.5 g. BSA (2mg/ml).
Unlabeled L-364,718(nonpeptide ligand):
Unlabeled L-364,718 (300 nM final concentration) is used to define nonspecific binding. A 3 mM solution is made in absolute ethanol and stored in a scintillation vial at -70° C. Aliquots are diluted 100-fold in the assay.
A Sprague-Dawley rat is sacrificed by asphyxiation with carbon dioxide and the pancreas removed. The tissue is immersed in cold wash buffer and carefully trimmed of fat, connective tissue, blood vessels, blotted and weighed. The tissue is homogenized in a Sorvall SS-34 centrifuge tube in 50 volumes of wash buffer using a Polytron at setting 7 for 15 seconds. The tissue is centrifuged (Sorvall SS-34) at 19,000 rpm for 10 min. The supernatant is poured off and the pellet resuspended in sufficient buffer to obtain a contraction of 40 mg tissue wet weight/ml. Separate aliquots (2,3ml) are placed in each of 8 centrifuge tubes and centrifuged as before. The supernatants are poured off and the pellets stored at -70° C. Stored pellets are sufficient for the assay of 160 tubes and are stable for 1-2 months.
During the assay the stored membranes are resuspended in 40 ml of assay buffer by scraping the pellet off the wall of the centrifuge tube and washing it into a teflon-glass homogenizer. Membranes are resuspended by 5 passes with the teflon pestle and the membranes stored on ice until ready for use.
Preparation of Compounds:
Compounds are prepared in DMSO (dimethyl sulfoxide) or in assay buffer. The majority of structures active as CCK antagonists generally require DMSO for complete solubility. Approximately 2-3 mg of compound is weighed directly into a 13×100 mm test tube and sufficient DMSO added to obtain a working stock solution at a concentration 100 fold greater than the highest concentration being tested in the assay. A total of 10 μl of each concentration of drug is added into a final volume of 1 ml to yield a 100 fold dilution of the, working stock solution. Control binding tubes ("totals and nonspecifics") are also treated with 10 μl DMSO.
^3 H-L-364,718 is obtained from New England Nuclear (Cat. #971) and is used as supplied. The final assay concentration of ^3 H-L-364,718 in assay buffer should be 0.2 nM in a final assay volume of 1 ml. ^3 H-L-364,718 (0.2 pmol) is added into the assay in a volume of 25 μl (8 nM working stock solution). The required dilution (usually>1000 fold) is obtained by dividing the working stock concentration into the concentration of the specific lot.
Samples are prepared in triplicate and a "total" (buffer addition) and "nonspecific" (300 nM unlabeled L-364,718) set of tubes included in each set of 24 tubes. The remaining 6 sets of triplicates are used either for screening or IC50 determinations. The order of addition is drugs-DMSO, buffer, unlabeled L-364,718, ^3 H-L-364,718, and to start the assay, membranes.
While tubes are incubating a shaking water bath at 37° C. for 30 min Brandel deposit/dispense filters are presoaked in wash buffer. Following the end of the incubation, sets of 24 tubes are rapidly washed with assay buffer as follows. Assay buffer is added to the incubation tubes to the height of the uppermost cross support in the standard Brandel test tube rack and the contents immediately aspirated. This process is repeated twice more, the filter removed, marked and the next set of 24 tubes processed. […]
On the technique in general: Loss of bound radioactivity is the signal in a displacement assay; it reports binding, not function.
The term IC50 denotes the concentration needed to halve the response being measured. In the case of `COc1cccc(NC(=O)N2Cc3[nH]c4ccccc4c3C[C@@H]2C(=O)N[C@@H](CC(C)C)C(=O)N[C@@H](CC(=O)O)C(N)=O)c1` [Example 61], the concentration for half-maximal inhibition (IC50) was above 100 µM.
Regarding `CC(C)C[C@H](NC(=O)[C@H]1Cc2c([nH]c3ccccc23)CN1)C(=O)N[C@@H](CC(=O)OCc1ccccc1)C(N)=O` [Example 40], the IC50 is 41 µM.
In the case of `CC(C)C[C@H](NC(=O)[C@H]1Cc2c([nH]c3ccccc23)CN1C(=O)Nc1ccc(Cl)c(Cl)c1)C(=O)N[C@@H](CC(=O)O)C(N)=O` [Example 66], the IC50 is 24 µM.
As to `Cc1cccc(NC(=O)N2Cc3[nH]c4ccccc4c3C[C@@H]2C(=O)NCC(=O)N[C@@H](CC(=O)O)C(N)=O)c1` [Example 56, N-[(3R)-2-(3-methylphenylcarbamoyl)-1,2,3,4-tetrahydro-9H-pyido[3,4-b]indole-3-carboxyl]glycyl-L-aspartic acid amide], the half-inhibitory concentration (IC50) amounted to 34 µM.
The figure for `Cc1cccc(NC(=O)N2Cc3[nH]c4ccccc4c3C[C@@H]2C(=O)N[C@@H](CC(C)C)C(=O)N[C@@H](CC(N)=O)C(=O)O)c1` [Example 50] is 92 µM.
Take `NC(=O)[C@H](CC(=O)O)NC(=O)[C@H]1Cc2c([nH]c3ccccc23)CN1C(=O)c1ccccc1` [Example 8, N-[(3R)-2-benzoyl-1,2,3,4-tetrahydro-9H-pyrido[3,4-b]indole-3-carboxyl]-L-aspartic acid amide]: the IC50 is 82 µM.
For `CC(C)C[C@H](NC(=O)[C@H]1Cc2c([nH]c3ccccc23)CN1C(=O)Nc1ccc(Cl)cc1)C(=O)N[C@@H](CC(=O)O)C(N)=O` [Example 55, N-[(3R)-2-(4-chlorophenylcarbamoyl)-1,2,3,4-tetrahydro-9H-pyrido[3,4-b]indole-3-carboxyl]-L-leucyl-L-asartic acid amide] the value was 48 µM; for `CCOC(=O)c1ccc(NC(=O)[C@H]2Cc3c([nH]c4ccccc34)CN2C(=O)Nc2cccc(C)c2)cc1` [Example 43], 37 µM; for `O=C(NCC(c1ccccc1)c1ccccc1)[C@H]1Cc2c([nH]c3ccccc23)CN1` [Example 5, (3R)-3-(2,2'-diphenyl)ethylcarbamoyl-1,2,3,4-tetrahydro-9H-pyrido[3,4-b]indole], 50 to 60 µM.
`CC(C)C[C@H](NC(=O)[C@H]1Cc2c([nH]c3ccccc23)CN1C(=O)Nc1cccc(F)c1)C(=O)N[C@@H](CC(=O)O)C(N)=O` [Example 65]: the IC50 was above 100 µM.
For `Cc1cccc(NC(=O)N2Cc3[nH]c4ccccc4c3C[C@@H]2C(=O)N(C)[C@@H](CC(C)C)C(=O)N[C@@H](CC(=O)O)C(N)=O)c1` [Example 53, N-[(3R)-2-(3-methylphenylcarbamoyl)-1,2,3,4-tetrahydro-9H-pyrido[3,4-b]indole-3-carboxyl]N'-methyl-L-leucine-L-aspartic acid amide] the value was 29 µM; for `CC(C)C[C@H](NC(=O)[C@H]1Cc2c([nH]c3ccccc23)CN1C(=O)Nc1cccc2ccccc12)C(=O)N[C@@H](CC(=O)O)C(N)=O` [Example 67, N-[(3R)-2-(1-naphthylcarbamoyl)-1,2,3,4-tetrahydro-9H-pyrido[3,4-b]indole-3-carboxyl]-L-leucyl-L-aspartic acid amide], 100 µM; for `O=C(NC(c1ccccc1)c1ccccc1)[C@H]1Cc2c([nH]c3ccccc23)CN1` [Example 6, (3R)-3-diphenylmethylcarbamoyl-1,2,3,4-tetrahydro-9H-pyrido[3,4-b]indole], 62 µM.
Regarding `NC(=O)[C@H](CC(=O)O)NC(=O)C1(NC(=O)[C@H]2Cc3c([nH]c4ccccc34)CN2C(=O)Nc2ccc(Cl)c(Cl)c2)CCCC1` [Example 26], the IC50 is 100 µM.
The figure for `Cc1cccc(NC(=O)N2Cc3[nH]c4ccccc4c3C[C@@H]2C(=O)N[C@@H](CC(C)C)C(=O)N[C@@H](Cc2ccccc2)C(N)=O)c1` [Example 42] is 4 µM; for `Cc1cccc(NC(=O)N2Cc3[nH]c4ccccc4c3C[C@H]2C(=O)N[C@H](CC(C)C)C(=O)N[C@@H](CC(=O)O)C(N)=O)c1` [Example 52] it is 53 µM.
The figure for `CCOC(=O)c1ccccc1NC(=O)[C@@H]1Cc2c([nH]c3ccccc23)CN1C(=O)OCc1ccccc1` [Example 23, ethyl 2-N-[(3S)-2-carbobenzoxy-1,2,3,4-tetrahydro-9H-pyrido[3,4-b]indole-3-carboxyl]aminobenzoate] is above 10 µM.
The figure for `NC(=O)[C@H](CC(=O)O)NC(=O)[C@@H]1Cc2c([nH]c3ccccc23)CN1` [Example 4, N-[(3S)-1,2,3,4-tetrahydro-9H-pyrido[3,4-b]indole-3-carboxyl]-L-aspartic amide] is above 300 µM.
Take `CC(C)C[C@H](NC(=O)[C@H]1Cc2c([nH]c3ccccc23)CN1C(=O)Nc1ccc(Cl)c(Cl)c1)C(=O)NCC(N)=O` [Example 28]: the half-inhibitory concentration (IC50) is 9 µM.
For `CC(C)C[C@H](NC(=O)[C@H]1Cc2c([nH]c3ccccc23)CN1)C(=O)N[C@@H](CC(=O)O)C(N)=O` [Example 1, N-[(3R)-1,2,3,4-tetrahydro-9H-pyrido[3,4-b]indole-3-carboxyl]-L-leucyl-L-aspartic acid amide] the value was above 300 µM.
As for `Cc1cccc(C(=O)N2Cc3[nH]c4ccccc4c3C[C@@H]2C(=O)N[C@@H](CC(C)C)C(=O)N[C@@H](CC(=O)O)C(N)=O)c1` [Example 54], the IC50 is above 100 µM.
The figure for `Cc1cc(C)cc(NC(=O)N2Cc3[nH]c4ccccc4c3C[C@@H]2C(=O)N[C@@H](CC(C)C)C(=O)N[C@@H](CC(=O)O)C(N)=O)c1` [Example 60, N-[(3R)-2-(3,5-dimethylphenylcarbamoyl)-1,2,3,4-tetrahydro-9H-pyrido[3,4-b]indole-3-carboxyl]-L-leucyl-L-aspartic acid amide] is 65 µM; for `CC(C)C[C@H](NC(=O)[C@H]1Cc2c([nH]c3ccccc23)CN1C(=O)Nc1ccc2ccccc2c1)C(=O)N[C@@H](CC(=O)O)C(N)=O` [Example 62] it is 9.3 µM; for `Cc1cccc(NC(=O)N2Cc3[nH]c4ccccc4c3C[C@H]2C(=O)N[C@H](CC(C)C)C(=O)N[C@H](CC(=O)O)C(N)=O)c1` [Example 49] it is 35 µM.
The figure for `Cc1cccc(NC(=O)N2Cc3[nH]c4ccccc4c3C[C@@H]2C(=O)N[C@@H](CC(C)C)C(=O)N[C@H](CC(=O)O)C(N)=O)c1` [Example 51, N-[(3R)-2-(3-methylphenylcarbamoyl)-1,2,3,4-tetrahydro-9H-pyrido[3,4-b]indole-3-carboxyl]-L-leucyl-D-aspartic acid amide] is 100 µM; for `Cc1cccc(NC(=O)N2Cc3[nH]c4ccccc4c3C[C@@H]2C(=O)N[C@@H](CC(C)C)C(N)=O)c1` [Example 39, N-[(3R)-2-(3-methylphenylcarbamoyl)-1,2,3,4-tetrahydro-9H-pyrido[3,4-b]indole-3-carboxy]-L-leucinamide] it is above 100 µM.
